Like-named read-outs stand apart in the source and are kept apart here.
How the values were obtained:
[1] = tested on: juvenile S. japonicum in mice; assay: Treatment of infected mice at juvenile worm stage; type: in vivo, Schistosoma japonicum (ICR mice); conditions: 10 mg/kg i.p. daily for 5 days from day 7 post-infection; for Number of eggs per gram of liver (Mean ± SD) / Number of worms (Mean ± SD): sacrificed day 42; for Egg reduction rate / Worm reduction rate: versus control, 10 mg/kg
Description: (§1) The abdominal skin of each mouse (ICR, female, 22–24 g) was exposed to 20 S. japonica cercariae (as described above). The mice were intraperitoneally injected with 10 mg/kg oxadiazole-2-oxides daily for 5 days, beginning either 7 or 35 days post-infection. Control mice were treated with 10 mg/kg of the carrier medium. All mice were sacrificed 42 days post-infection. The worm burden of each mouse was confirmed by counting the number of worms observed from a portal vein perfusion. The mouse livers were digested overnight with 5 % potassium hydroxyl solution at 37 °C and the eggs in the liver tissue were counted under an inverted phase contrast microscope. The worm and egg reduction rates were calculated using the following formulas: Wormreductionrate%=meannumberofadultwormspermouseincontrolgroup−meannumberofadultwormspermouseinexperimentalgroup/meannumberofadultwormspermouseincontrolgroup. Eggreductionrate%=meannumberofeggspermouseincontrolgroup−meannumberofeggspermouseinexperimentalgroup/meannumberofeggspermouseincontrolgroup.

[2] = tested on: adult S. japonicum in mice; assay: Treatment of infected mice at adult worm stage; type: in vivo, Schistosoma japonicum (ICR mice); conditions: for Number of eggs per gram of liver (Mean ± SD) / Number of worms (Mean ± SD): sacrificed day 42
Description: as §1

[3] = Cytotoxicity assay on Hela cells (MTT); type: cell-based; conditions: human
Description: Cytotoxicity assays were performed using Hela cells. Cells in the exponential growth phase were collected by centrifugation and a concentration of 4–5 × 10^4/mL was created. 100 μL of the cell suspension was added to each well of a 96-well plate and cultured overnight at 37 °C in a humid atmosphere with 5 % CO2. Oxadiazole-2-oxides (at 10, 20, 40, 80 and 160 μM) were added. Each concentration was assayed in triplicate, and control wells (no cells and no drugs) were assayed at the same time. The “no cell” control wells only contained RPMI 1640 medium, MTT, DMSO, and oxadiazole-2-oxides. The “no drug” control wells contained the Hela cells, RPMI 1640 medium, MTT and DMSO. The cells were cultured for 48 h at 37 °C in a humid atmosphere with 5 % CO2. Then, 20 μL of 5 mg/mL MTT was added to each well and the culture conditions were maintained for 4 h. After this point, the medium was removed and 150 μL DMSO was added into each well to dissolve any crystallisation. The value of absorbance at 570 nm of each well was measured (at 570 nm) with a microplate reader to assess the toxic effect of the oxadiazole-2-oxides on the vertebrate cells.

adult S. japonicum = assay: microbe, parasite or virus in culture; type: cell-based; conditions: for killing at 25 µM / killing at 50 µM / killing at 100 µM / Killing activity 24hr / Killing activity 48hr / Killing activity 72hr: adult worms
How it was run: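 Adult worm pairs recovered by portal perfusion from ICR mice 35 days after infection with 50 cercariae, cultured in RPMI 1640 (pH 7.5, 20 mM HEPES, 10% FBS) at 37 °C, 5% CO2. Oxadiazole-2-oxides at 10, 25, 50, 100 μM; motility and survival scored microscopically at 24, 48, 72 h, death being no movement over 2 min; three independent experiments averaged.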

[4] = mice, 10 mg/kg i.p. daily for 5 days from day 35 post-infection
[5] = mice, 10 mg/kg i.p. daily for 5 days from day 35 post-infection, versus control, 10 mg/kg
[6] = Schistosoma japonicum, read-out: Mortality of adult worms
[7] = Schistosoma japonicum, 25 μM, 24 h, read-out: Killing activity 24hr
[8] = Schistosoma japonicum, 25 μM, 48 h, read-out: Killing activity 48hr
[9] = Schistosoma japonicum, 25 μM, 72 h, read-out: Killing activity 72hr
[10] = Schistosoma japonicum, 24 h, read-out: Killing activity 24hr
[11] = Schistosoma japonicum, 48 h, read-out: Killing activity 48hr
[12] = Schistosoma japonicum, 72 h, read-out: Killing activity 72hr
[13] = mice, 10 mg/kg i.p. daily for 5 days from day 35 post-infection, versus control
[14] = Schistosoma japonicum, 24 h, read-out: Mortality of adult worms

COc1ccc(-c2no[n+]([O-])c2CO)cc1 [Compound 4a]
Number of eggs per gram of liver (Mean ± SD) [1]: 4,258.9 ± 1,910.0 (P > 0.05^**) | Number of worms (Mean ± SD) [1]: 1.3 ± 0.8 (P > 0.05^**) | Egg reduction rate [1]: 47.0 (P < 0.05^*) % | Worm reduction rate [1]: 87.7 (P < 0.01^*) % | Reduction in the female worms ([2]; mice treated at adult worm stage (data not shown)): 36.8% | Number of eggs per gram of liver (Mean ± SD) [2, 4]: 7730.8 ± 1457.8 (P < 0.05^**) | Number of worms (Mean ± SD) [2, 4]: 4.0 ± 2.5 (P > 0.05^**) | Egg reduction rate [2, 5]: 3.8 (P > 0.05^*) % | Worm reduction rate [2, 5]: 66.7 (P < 0.01^*) % | viability at 72 h, 80 µM [3]: 91% | mortality at 100 µM (adult S. japonicum; [6]): 100% | killing at 25 µM (adult S. japonicum; [7]): 50% | killing at 25 µM (adult S. japonicum; [8]): 100% | killing at 25 µM (adult S. japonicum; [9]): 100% | killing at 50 µM (adult S. japonicum; [10]): 88.9% | killing at 50 µM (adult S. japonicum; [11]): 100% | killing at 50 µM (adult S. japonicum; [12]): 100% | killing at 100 µM (adult S. japonicum; [10]): 100% | killing at 100 µM (adult S. japonicum; [11]): 100% | killing at 100 µM (adult S. japonicum; [12]): 100% | Killing activity 24hr (adult S. japonicum; 10 μM, 24 h): 37.5%D | Killing activity 48hr (adult S. japonicum; 10 μM, 48 h): 37.5%D | Killing activity 72hr (adult S. japonicum; 10 μM, 72 h): 50.0%D

N#Cc1c(-c2ccc(OCCCBr)cc2)no[n+]1[O-] [Compound 13]
Number of eggs per gram of liver (Mean ± SD) [1]: 3,808.9 ± 1,288.9 (P > 0.05^**) | Number of worms (Mean ± SD) [1]: 1.7 ± 0.7 (P > 0.05^**) | Egg reduction rate [1]: 52.6 (P < 0.05^*) % | Worm reduction rate [1]: 84.6 (P < 0.01^*) % | Number of eggs per gram of liver (Mean ± SD) [2, 4]: 8201.4 ± 2066.0 (P < 0.05^**) | Number of worms (Mean ± SD) [2, 4]: 8.6 ± 2.4 (P < 0.05^**) | Worm reduction rate [2, 13]: 28.3 (P < 0.05^*) % | viability at 72 h, 80 µM [3]: 80% | mortality at 50 µM (adult S. japonicum; [14]): 100% | killing at 25 µM (adult S. japonicum; [8]): 100% | killing at 25 µM (adult S. japonicum; [9]): 100% | killing at 50 µM (adult S. japonicum; [10]): 100% | killing at 50 µM (adult S. japonicum; [11]): 100% | killing at 50 µM (adult S. japonicum; [12]): 100% | killing at 100 µM (adult S. japonicum; [10]): 100% | killing at 100 µM (adult S. japonicum; [11]): 100% | killing at 100 µM (adult S. japonicum; [12]): 100% | Killing activity 24hr (adult S. japonicum; 10 μM, 24 h): sluggish | Killing activity 48hr (adult S. japonicum; 10 μM, 48 h): 90.0%D | Killing activity 72hr (adult S. japonicum; 10 μM, 72 h): 100%D | Killing activity 24hr (adult S. japonicum; 25 μM, 24 h): sluggish

C#CCOc1ccc(-c2no[n+]([O-])c2C#N)cc1 [Compound 20]
Number of eggs per gram of liver (Mean ± SD) [1]: 7,767.5 ± 2,676.6 (P < 0.05^**) | Number of worms (Mean ± SD) [1]: 3.0 ± 0.9 (P < 0.05^**) | Egg reduction rate [1]: 3.3 (P > 0.05^*) % | Worm reduction rate [1]: 69.5 (P < 0.01^*) % | Number of eggs per gram of liver (Mean ± SD) [2, 4]: 10094.7 ± 1691.0 (P < 0.05^**) | Number of worms (Mean ± SD) [2, 4]: 4.7 ± 1.1 (P > 0.05^**) | Worm reduction rate [2, 13]: 61.1 (P < 0.01^*) % | viability at 72 h, 80 µM [3]: 87% | mortality at 100 µM (adult S. japonicum; [6]): 100% | killing at 25 µM (adult S. japonicum; [7]): 50% | killing at 25 µM (adult S. japonicum; [8]): 100% | killing at 25 µM (adult S. japonicum; [9]): 100% | killing at 50 µM (adult S. japonicum; [10]): 70% | killing at 50 µM (adult S. japonicum; [11]): 100% | killing at 50 µM (adult S. japonicum; [12]): 100% | killing at 100 µM (adult S. japonicum; [10]): 100% | killing at 100 µM (adult S. japonicum; [11]): 100% | killing at 100 µM (adult S. japonicum; [12]): 100% | Killing activity 24hr (adult S. japonicum; 10 μM, 24 h): n.e. | Killing activity 48hr (adult S. japonicum; 10 μM, 48 h): 50.0%D | Killing activity 72hr (adult S. japonicum; 10 μM, 72 h): 75.0%D

N#Cc1c(-c2ccc(OCc3ccccc3)cc2)no[n+]1[O-] [Compound 19]
mortality at 25 µM (adult S. japonicum; [14]): > 75% | killing at 25 µM (adult S. japonicum; [7]): 100% | killing at 25 µM (adult S. japonicum; [8]): 100% | killing at 25 µM (adult S. japonicum; [9]): 100% | killing at 50 µM (adult S. japonicum; [10]): 100% | killing at 50 µM (adult S. japonicum; [11]): 100% | killing at 50 µM (adult S. japonicum; [12]): 100% | killing at 100 µM (adult S. japonicum; [10]): 100% | killing at 100 µM (adult S. japonicum; [11]): 100% | killing at 100 µM (adult S. japonicum; [12]): 100% | Killing activity 24hr (adult S. japonicum; 10 μM, 24 h): 80.0%D | Killing activity 48hr (adult S. japonicum; 10 μM, 48 h): 100%D | Killing activity 72hr (adult S. japonicum; 10 μM, 72 h): 100%D

N#Cc1c(-c2ccc(COc3ccc(C=O)cc3)cc2)no[n+]1[O-] [Compound 26]
mortality at 25 µM (adult S. japonicum; [14]): > 75% | killing at 25 µM (adult S. japonicum; [7]): 85.7% | killing at 25 µM (adult S. japonicum; [8]): 100% | killing at 25 µM (adult S. japonicum; [9]): 100% | killing at 50 µM (adult S. japonicum; [10]): 100% | killing at 50 µM (adult S. japonicum; [11]): 100% | killing at 50 µM (adult S. japonicum; [12]): 100% | killing at 100 µM (adult S. japonicum; [10]): 100% | killing at 100 µM (adult S. japonicum; [11]): 100% | killing at 100 µM (adult S. japonicum; [12]): 100% | Killing activity 24hr (adult S. japonicum; 10 μM, 24 h): n.e. | Killing activity 48hr (adult S. japonicum; 10 μM, 48 h): n.e. | Killing activity 72hr (adult S. japonicum; 10 μM, 72 h): 16.7%D

N#Cc1c(-c2ccc(COc3ccccc3)cc2)no[n+]1[O-] [Compound 23]
mortality at 25 µM (adult S. japonicum; [14]): > 75% | killing at 25 µM (adult S. japonicum; [7]): 100% | killing at 25 µM (adult S. japonicum; [8]): 100% | killing at 25 µM (adult S. japonicum; [9]): 100% | killing at 50 µM (adult S. japonicum; [10]): 100% | killing at 50 µM (adult S. japonicum; [11]): 100% | killing at 50 µM (adult S. japonicum; [12]): 100% | killing at 100 µM (adult S. japonicum; [10]): 100% | killing at 100 µM (adult S. japonicum; [11]): 100% | killing at 100 µM (adult S. japonicum; [12]): 100% | Killing activity 24hr (adult S. japonicum; 10 μM, 24 h): 62.5%D | Killing activity 48hr (adult S. japonicum; 10 μM, 48 h): 87.5%D | Killing activity 72hr (adult S. japonicum; 10 μM, 72 h): 100%D

Cc1ccc2cccc(OCc3ccc(-c4no[n+]([O-])c4C#N)cc3)c2n1 [Compound 28]
mortality at 25 µM (adult S. japonicum; [14]): > 75% | killing at 25 µM (adult S. japonicum; [7]): 100% | killing at 25 µM (adult S. japonicum; [8]): 100% | killing at 25 µM (adult S. japonicum; [9]): 100% | killing at 50 µM (adult S. japonicum; [10]): 100% | killing at 50 µM (adult S. japonicum; [11]): 100% | killing at 50 µM (adult S. japonicum; [12]): 100% | killing at 100 µM (adult S. japonicum; [10]): 100% | killing at 100 µM (adult S. japonicum; [11]): 100% | killing at 100 µM (adult S. japonicum; [12]): 100% | Killing activity 24hr (adult S. japonicum; 10 μM, 24 h): 57.1%D | Killing activity 48hr (adult S. japonicum; 10 μM, 48 h): 57.1%D | Killing activity 72hr (adult S. japonicum; 10 μM, 72 h): 71.4%D

N#Cc1c(-c2ccc(OCCBr)cc2)no[n+]1[O-] [Compound 12]
mortality at 25 µM (adult S. japonicum; [14]): > 75% | killing at 25 µM (adult S. japonicum; [7]): 80% | killing at 25 µM (adult S. japonicum; [8]): 100% | killing at 25 µM (adult S. japonicum; [9]): 100% | killing at 50 µM (adult S. japonicum; [10]): 88.9% | killing at 50 µM (adult S. japonicum; [11]): 100% | killing at 50 µM (adult S. japonicum; [12]): 100% | killing at 100 µM (adult S. japonicum; [10]): 100% | killing at 100 µM (adult S. japonicum; [11]): 100% | killing at 100 µM (adult S. japonicum; [12]): 100% | Killing activity 24hr (adult S. japonicum; 10 μM, 24 h): sluggish | Killing activity 48hr (adult S. japonicum; 10 μM, 48 h): sluggish | Killing activity 72hr (adult S. japonicum; 10 μM, 72 h): 55.6%D
